Experimental data from paper PMC5628579, “Potent mechanism-based sirtuin-2-selective inhibition by an in situ-generated occupant of the substrate-binding site, “selectivity pocket” and NAD^+-binding site” (Chemical Science, 2017).

Experiments:
H3K9Ac (SIRT1 substrate) = assay: Western blot of H3K9Ac in MDA-MB-231 cells; assay type: cell-based, human; details: 6 h
Description: MCF-7 and MDA-MB-231 cells were plated in 96-well plates (initial density: 1 × 10^3 cells per well) and incubated at 37 °C. After 24 h, test compound solutions (50 μL/well) of varying concentrations in medium (DMEM and Leibovitz's L-15 for MCF-7 and MDA-MB-231 cells respectively) for were added to the cells at 37 °C under 5% CO2 in air and left to react for 72 h. Thereafter, the mixtures were treated with 10 μL of AlamarBlue® (AbD Serotec, #BUF012A), incubation was continued at 37 °C for 3 h. The fluorescence in each well was measured with an ARVOTM X3 microplate reader (λex = 540 nm; λem = 590 nm). With the obtained fluorescence readings, it was possible to calculate the percentage of cell growth.
MDA-MB-231 cells (5 × 10^5 cells/2 mL/dish) were treated for 6 h with the test compounds at the indicated concentrations in the cell culture medium, before the cells were collected and extracted with SDS buffer. The protein concentrations of the lysates were determined using a BCA protein assay.
Equivalent amounts of protein from each lysate were resolved in 5–20% SDS-polyacrylamide gels and transferred onto PVDF membranes. […]
For the differentiation study, the medium was changed to DMEM supplemented with 2% FBS. After incubation with or without 36 for 72 h, the cell morphology was examined using a microscope (Olympus CKX41) and further analyzed with the Photomeasure software (Kenis Ltd.). […]

[1] = HPLC stability under SIRTs assay conditions; assay type: physicochemical; details: buffer pH 8.0, 30 °C, 0–200 min
Description: HPLC stability of 36 under SIRTs assay conditions
Compound 36 (10 μL, 0.5 mM) in DMSO/buffer (50 mM Tris/HCl, pH = 8.0, 137 mM NaCl, 2.7 mM KCl, 1 mM MgCl2) was added to selected wells, followed by 40 μL of buffer (50 mM Tris/HCl, pH = 8.0, 137 mM NaCl, 2.7 mM KCl, 1 mM MgCl2). The obtained solution was incubated at 30 °C and 250 rpm for 0, 50, 100, 150, and 200 min. At the end of each incubation time, the wells were diluted with CH3CN (50 μL, HPLC grade). The entire volume (100 μL) was transferred to a Cosmospin filter H (0.45 μm) and 20 μL of the filtrate were injected in the HPLC instrument. Column:
(90%), 30–40 min (90–10%). The peak area was determined at 220 nm. […]

SIRT2 = target: T1, SIRT2 (Homo sapiens, UniProt Q8IXJ6); assay: SIRT2 substrate competition analysis and time-dependent inhibition; assay type: biochemical; design: purchased Biomol / Enzo Life Sciences (Fluor de Lys kit AK-556) BML SE-251-0500
T1 sequence (Q8IXJ6 1-389): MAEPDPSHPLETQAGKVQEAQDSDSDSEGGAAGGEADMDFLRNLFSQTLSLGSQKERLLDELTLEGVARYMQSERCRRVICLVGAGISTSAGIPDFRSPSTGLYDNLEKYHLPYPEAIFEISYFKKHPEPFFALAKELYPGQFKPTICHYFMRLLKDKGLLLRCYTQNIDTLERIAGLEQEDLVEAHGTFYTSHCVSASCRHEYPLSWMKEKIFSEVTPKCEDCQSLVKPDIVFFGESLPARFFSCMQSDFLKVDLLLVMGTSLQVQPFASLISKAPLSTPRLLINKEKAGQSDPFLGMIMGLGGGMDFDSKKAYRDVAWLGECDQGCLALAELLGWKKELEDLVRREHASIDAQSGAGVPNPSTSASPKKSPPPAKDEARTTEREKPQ
Description: added to the blank wells). […] Thereafter, […]
which three independent curves were generated. […]
added to the blank wells).
The results were plotted using GraFit 7.0.3.
SIRT2 substrate competition analysis for 36
The assay follows in general the same procedure reported for the SIRT2 assay (vide supra), except for the following changes: reaction time = 45 min; [NAD+] = 2 mM; [substrate] = 50, 80, 150, or […]
Mass spectrometric detection of the ADP-ribose conjugate
Reactions were conducted for 5 min at 37 °C in 5 μL containing 1.9 μM SIRT2 (SignalChem), 500 μM NAD+ or 6-AE-NAD+ (BIOLOG Life Science Institute), and 1 mM 36, as well as 40 mM sodium phosphate buffer (pH = 7.0), containing 240 mM NaCl, 120 mM imidazole, 0.08 mM PMSF, 0.2 mM DTT, 20% glycerol, and 2% DMSO. Controls were measured in the absence of compounds or the enzyme. The reaction mixtures were diluted with 5 μL of water and purified using ZipTip-μC18 (Millipore). The fraction eluted with 2 μL of 50% acetonitrile containing α-cyano-4-hydroxycinnamic acid at a concentration of 5 mg/mL was directly subjected to MALDI-TOF MS analysis. MALDI-TOF mass spectra were acquired on an AB SCIEX TOF/TOF™ 5800 (AB SCIEX) in reflectron […]

HPLC stability under SIRTs assay conditions [1]: stable | time dependence of SIRT2 inhibitory effect (SIRT2; incubation 0–120 min with SIRT2, acetylated substrate, NAD+): time-dependent
Compound: C[C@H](NC(=O)[C@H](CCCCNC(=S)CNC(=O)c1ccccc1Nc1cccc(OCCc2ccccc2)c1)NC(=O)OCc1ccccc1)C(N)=O [Compound 36]
H3K9Ac level (western blot) (H3K9Ac (SIRT1 substrate)): did not upregulate | mode of SIRT2 inhibition (substrate competition analysis) (SIRT2; Lineweaver–Burk plot, NAD+ saturation): competitive inhibition with the acetylated lysine substrate
